Data on two molecules can be found in patent publication EP0334551A1, “Anti-neoplastic formulations” (priority 1988, dated 1989).

Read-outs that look alike come from different tables or passages of the source.

The conditions of series [1]: reconstituted solutions of the lyophilised powder, cited from earlier work.
For series [2] the following is noted: aqueous solution of unlyophilised carboplatin in sterile water, at room temperature. The procedure: The solutions obtained were filled into amber moulded 20 ml vials and sealed with Teflon-lined caps, West 541. The above two solutions were stored at room temperature for 15 months, then tested for stability. […] The solution was filled into 20 ml amber moulded vials and sealed with grey chlorobutyl rubber caps. […] Each solution was filled into 6 ml clear drawn vials and sealed with Teflon lined caps.

The conditions of series [3]: in all the infusion fluids studied; cited from earlier work.

On to `[NH2][Pt]1([NH2])[O]C(=O)C2(CCC2)C(=O)[O]1` [carboplatin, cis-Diamine[1,1-cyclobutanedicarboxylato-(2-)-O,O′]platinum [SP-4-27]], for which the “stable (time)” value was 8 h in series [1] (at room temperature), 24 h in series [1] (under refrigeration), “at least 18 months” in series [2] and 24 h in series [3].
With iproplatin, the “stable (time)” value in series [3] was 24 h.
